# What was measured:
# [1] = cited from earlier work
# [2] = in vivo; cited from earlier work
# [3] = tested on: acute lymphoblastic leukemia xenograft; conditions: oral administration, alone; cited from earlier work
# [4] = tested on: small-cell lung cancer xenograft; conditions: oral administration, alone; cited from earlier work
# [5] = tested on: H345 xenograft; conditions: 100 mg/kg/day, H345 xenograft model; cited from earlier work
# [6] = tested on: SCLC H146 cell line; conditions: read-out: IC50 against SCLC H146 cell line; cited from earlier work
# [7] = target: Bcl-w (Homo sapiens (Human), UniProt Q92843); conditions: cited from earlier work
# [8] = tested on: circulating platelets; conditions: clinical trial, single agent; cited from earlier work
# [9] = tested on: CLL; conditions: average, read-out: average EC50, apoptosis in CLL; cited from earlier work
# [10] = tested on: RS4; 11 xenografts; conditions: single dose of 100 mg/kg; cited from earlier work
# [11] = tested on: RS4;11 cells; conditions: cited from earlier work
# [12] = target: Mcl-1 (Homo sapiens (Human), UniProt Q07820); conditions: cited from earlier work
# [13] = tested on: BCL-2-dependent acute lymphoblastic leukemia (ALL) cell line RS4;11; experiment: In vitro anti-proliferation assay (ATPlite luminescence) in RS4;11; type: cell-based; conditions: RS4;11 cells, about 72 hours, medium with 5% FBS or 10% normal human serum
# Description: Cell antiproliferation was assayed by PerkinElmer ATPlite™ Luminescence Assay System. Briefly, the various test cancer cell lines were plated at a density of about 1×10^4 cells per well in Costar 96-well plates, and were incubated with different concentrations of compounds for about 72 hours in medium supplemented with 5% FBS or 10% normal human serum (NHS). One lyophilized substrate solution vial was then reconstituted by adding 5 mL of substrate buffer solution, and was agitated gently until the solution was homogeneous. About 50 μL of mammalian cell lysis solution was added to 100 μL of cell suspension per well of a microplate, and the plate was shaken for about five minutes in an orbital shaker at 700 rpm. This procedure was used to lyse the cells and to stabilize the ATP. Next, 50 μL substrate solution was added to the wells and microplate was shaken for five minutes in an orbital shaker at 700 rpm. Finally, the luminescence was measured by a PerkinElmer TopCount® Microplate Scintillation Counter. Such assays, carried out with a range of doses of test compounds, allowed the determination of the cellular anti-antiproliferative IC50 of the compounds of the present invention.
# [14] = target: BCL-2 (Homo sapiens (Human), UniProt P10415); experiment: BCL-2 competition binding (fluorescence polarization) assay; conditions: fluorescein-labeled BH3 peptide 15 nM, purified BCL-2 protein 30 nM, 3 hours incubation at room temperature; read-out: BCL2 IC50
# Description: Biological Example 1: BCL-2 Competition Binding (Fluorescence Polarization) Assay
# The fluorescence-labeled 23 amino acid peptide BH3 was purchased from CalBiochem ([…]). […] This binding assay was performed in 96-well plate and with each assay contained 15 and 30 nM of labeled peptide and purified BCL-2 protein (purchased from R&D Systems, Inc). The assay buffer contained 20 mM Hepes (pH 7.0), 50 mM KCl, 5 mM MgCl2, 20 mM Na2MoO4, 0.1 mg/ml Bovine Gamma Globulin and 0.01% NP40. Compounds were diluted in DMSO and added to the final assay with concentration range from 20 μM to 2 nM. The polarization degree (mP) value was determined by BioTek Synergy II with background subtraction after 3 hours of incubation at room temperature. IC50 was calculated using Prism software with sigmoidal dose-response curve fitting. ABT-737 was used as reference compound. Such assays, carried out with a range of doses of test compounds, allowed the determination of an approximate IC50 value.
# BCL-2, sequence (P10415 whole entry): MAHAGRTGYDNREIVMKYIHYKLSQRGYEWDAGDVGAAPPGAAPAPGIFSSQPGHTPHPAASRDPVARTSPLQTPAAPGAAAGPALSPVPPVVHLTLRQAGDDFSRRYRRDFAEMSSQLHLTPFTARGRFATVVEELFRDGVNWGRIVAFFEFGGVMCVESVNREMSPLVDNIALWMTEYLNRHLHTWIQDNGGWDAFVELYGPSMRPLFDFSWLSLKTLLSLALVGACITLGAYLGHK
# Mcl-1, sequence (Q07820 whole entry): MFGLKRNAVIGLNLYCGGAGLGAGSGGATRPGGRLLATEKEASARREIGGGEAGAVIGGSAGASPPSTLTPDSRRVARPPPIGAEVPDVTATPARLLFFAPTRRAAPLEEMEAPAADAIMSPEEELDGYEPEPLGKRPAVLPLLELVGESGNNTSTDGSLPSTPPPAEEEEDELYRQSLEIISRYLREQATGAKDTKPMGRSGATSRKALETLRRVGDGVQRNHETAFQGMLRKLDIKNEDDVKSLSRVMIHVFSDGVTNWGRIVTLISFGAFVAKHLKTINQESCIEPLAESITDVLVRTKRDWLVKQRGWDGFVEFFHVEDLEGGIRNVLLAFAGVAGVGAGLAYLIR
# Bcl-w, sequence (Q92843 whole entry): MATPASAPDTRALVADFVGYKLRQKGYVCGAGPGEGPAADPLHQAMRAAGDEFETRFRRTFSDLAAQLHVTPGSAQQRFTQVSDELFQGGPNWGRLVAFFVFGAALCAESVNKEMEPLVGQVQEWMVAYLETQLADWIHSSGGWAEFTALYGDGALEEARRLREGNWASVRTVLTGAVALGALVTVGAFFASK
smiles,measurement,setting,value
CN(C)CC[C@H](CSc1ccccc1)Nc1ccc(S(=O)(=O)NC(=O)c2ccc(N3CCN(Cc4ccccc4-c4ccc(Cl)cc4)CC3)cc2)cc1[N+](=O)[O-] [ABT-737],aqueous solubility,[1],low aqueous solubility
same,oral bioavailability,[2],not orally bioavailable
CC1(C)CCC(c2ccc(Cl)cc2)=C(CN2CCN(c3ccc(C(=O)NS(=O)(=O)c4ccc(N[C@H](CCN5CCOCC5)CSc5ccccc5)c(S(=O)(=O)C(F)(F)F)c4)cc3)CC2)C1 [ABT-263],"tumor response, acute lymphoblastic leukemia xenograft models",[3],complete tumor regressions
same,"tumor response, small-cell lung cancer xenograft models",[4],complete tumor regressions
same,TGI,[5],80%
same,treated tumors indicating at least a 50% reduction in tumor volume,[5],20%
same,IC50,[6],110 nM
same,Ki,[7],≤ 1 nM
same,number of circulating platelets,[8],"rapid, concentration-dependent decrease"
CC1(C)CCC(CN2CCN(c3ccc(C(=O)NS(=O)(=O)c4ccc(NCC5CCOCC5)c([N+](=O)[O-])c4)c(Oc4cnc5[nH]ccc5c4)c3)CC2)=C(c2ccc(Cl)cc2)C1 [ABT-199],EC50,[9],3 nM
same,maximal tumor growth inhibition,[10],95%
same,tumor growth delay,[10],152%
same,EC50,[11],8 nM
same,activity to Mcl-1,[12],no activity
"CC1(C)CCC(CN2CCN(c3ccc(C(=O)NS(=O)(=O)c4ccc(NC[C@H]5COCCO5)c([N+](=O)[O-])c4)c(-n4c5ccncc5c5nc6[nH]ccc6cc54)c3)CC2)=C(c2ccc(Cl)cc2)C1 [Example 71, 4-(4-[[2-(4-chlorophenyl)-4,4-dimethylcyclohex-1-en-1-yl]methyl]piperazin-1-yl)-N-(4-[[(2S)-1,4-dioxan-2-ylmethyl]amino]-3-nitrobenzenesulfonyl)-2-[4,8,14,16-tetraazatetracyclo[7.7.0.0^[2,7].0[11,15]]hexadeca-1(16),2(7),3,5,9,11(15),12-heptaen-8-yl]benzamide]",IC50,[13],192 nM
same,IC50,[14],0.6 nM
Cc1ncsc1-c1ccc(CNC(=O)[C@@H]2C[C@@H](O)CN2C(=O)[C@@H](NC(=O)CCOCCOCCOCCN2CCN(CCNc3ccc(S(=O)(=O)NC(=O)c4ccc(N5CCN(CC6=C(c7ccc(Cl)cc7)CC(C)(C)CC6)CC5)cc4N4CCCOc5nc6[nH]ccc6cc54)cc3[N+](=O)[O-])CC2)C(C)(C)C)cc1 [Example 54],IC50,[13],49.6 nM
same,IC50,[14],0.6 nM

# — patent US12220419B2, “BCL-2 inhibitors” (Newave Pharmaceutical Inc., priority 2018, dated 2025)
